Assay results: PMC11312813, “An Optimized Peptide Antagonist of CXCR4 Limits Survival of BCR–ABL1-Transformed Cells in Philadelphia-Chromosome-Positive B-Cell Acute Lymphoblastic Leukemia” (International Journal of Molecular Sciences, 2024)
Structures can show the parent of a compound that is named as a salt.

What was measured:
CXCR4 = settings: ref [14],[17]; cited from earlier work
[1] = system: BCR–ABL1-transformed mouse B cells; assay: Real-time cell growth analysis by IncuCyte (GFP+ cell enrichment); format: cell-based; settings: 1, 5 and 10 µM, over 96 h; n = 4–5
Description: A flat-bottom 96-well plate was coated with 0.01% poly-L ornithine (#P4957, Sigma-Aldrich, Hamburg, Germany) for 1 h at room temperature (RT). […] The cells were plated in 100 μL complete medium. […] Plate was prewarmed at 37 °C for 30 min prior to placing in the IncuCyte chamber. Scanning was conducted every two hours for total of 4 days.

SupB15 cells = assay: Real-time cell growth by IncuCyte, SupB15; format: cell-based, human; settings: 1 µM, 96 h; n = 3
Description: (§1) The cells were plated in 100 μL complete medium.

[2] = system: TKO-EV cells (untransformed mouse BM pro-B cells); assay: Real-time cell growth analysis by IncuCyte, untransformed TKO-EV cells; settings: 1 µM, 96 h; n = 3
Description: A flat-bottom 96-well plate was coated with 0.01% poly-L ornithine (#P4957, Sigma-Aldrich, Hamburg, Germany) for 1 h at room temperature (RT). BCR–ABL1, SupB15, and 697 cells were counted as 0.5 × 10^5 cells/well, while TKO-BCR–ABL1 and TKO-EV cells as 1 × 10^5 cells/well, which were labeled with IncuCyte Cytotox Red dye (#4632, Sartorius, Ulm, Germany) as per the manufacturer’s protocol. The cells were plated in 100 μL complete medium. […] Plate was prewarmed at 37 °C for 30 min prior to placing in the IncuCyte chamber. Scanning was conducted every two hours for total of 4 days. Images were acquired using a 20X objective in phase contrast and fluorescence mode at 4 images/well and analyzed using the cell-by-cell analysis module of IncuCyte software version 2020B (Essen Bioscience, Ann Arbor, MI, USA).

697 cells = assay: Real-time cell growth by IncuCyte, 697; format: cell-based, human; settings: 1 µM, 96 h; n = 3
Description: as §1

Molecule	CXCL12-induced calcium signaling (CXCR4)	further results
ILRWSRK * (Glu-Pal)-NH2 [JM#192, fatty-acid-conjugated optimized EPI-X4 derivative]	block CXCL12-induced calcium signaling	
ILRWSRKLPCVS [JM#21]	block CXCL12-induced calcium signaling	
ILRWSRK * (Glu-Pal)LPCVS [JM#143, fatty-acid-conjugated optimized EPI-X4 derivative]	block CXCL12-induced calcium signaling	
IVRWSKK * (Pal)VPCVS [JM#169, fatty-acid-conjugated optimized EPI-X4 derivative]	block CXCL12-induced calcium signaling	GFP enrichment (BCR–ABL1 cell growth) vs DMSO [1]: significant reduction in cell growth only after 72 h
IVRWSKKVPCVS [WSC02, optimized 12-mer EPI-X4 derivative]	block CXCL12-induced calcium signaling	
Cc1ccc(NC(=O)c2ccc(CN3CCN(C)CC3)cc2)cc1Nc1nccc(-c2cccnc2)n1 [Imatinib, Imatinib mesylate, reference compound]		SupB15 cell growth vs DMSO (SupB15 cells): significantly reduced SupB15 cell growth; Survival/growth of TKO-EV cells [2]: no effect on the TKO-EV cells; 697 cell growth vs DMSO (697 cells): no effect on the 697 cells
